For orientation: IC50 means the midpoint of a concentration-inhibition curve.

Entries after “also recorded” stand apart in the source; their conditions may differ.

The target of one series is TGFβR-I (Homo sapiens, UniProt P36897). The settings on record: cited from earlier work.
Another series relates to human astrocytes. Description: Withdrawal of each individual compound from the 9 small molecule pool. The series is classed as cell-based. The settings on record: 14 days post initial treatment; for effect of removal from the 9 small molecule pool on number of converted neurons / reprogramming efficiency: SAG and Purmo removed together. From the text: This Example describes analysis of functional roles of each individual compound during chemical reprogramming. To dissect out the contribution of each single molecule toward reprogramming, we performed a series of experiments by withdrawing each individual compound from our cocktail pool (FIG. 6). […] FIG. 6K illustrates the summarized data of drug withdrawing experiments. While it is not a surprise that Tzv had no effect since it mainly acts as a cell survival factor, it was unexpected to find that removing TTNPB had no effect. […] On the other hand, the inhibition of Notch signaling, GSK-3β, and BMP/TGFβ signaling pathways appeared to be important for reprogramming astrocytes into neurons. […] Reprogramming human astrocytes into neurons. The astrocytes were cultured on poly-D-lysine (Sigma) coated coverslips (12 mm) at a density of 50,000 cells per coverslip in 24-well plates (BD Biosciences). The cells were cultured in human astrocyte medium until 90% confluence. At day 0 before reprogramming, half of the culture medium was replaced by N2 medium consisting of DMEM/F12 (Gibco), penicillin/streptomycin (Gibco) and N2 supplements (Gibco). The following day (Day 1), the culture medium was completely replaced by N2 medium supplemented with small molecules, or with 1% DMSO in control group. […] To promote synaptic maturation of converted neurons, brain-derived neurotrophic factor (BDNF, 20 ng/Ml, Invitrogen), Insulin-like growth factor 1 (IGF-1, 10 ng/ml, Invitrogen) and neurotrophin 3 (NT-3, 10 ng/ml, Invitrogen) were added in neuronal differentiation medium at day 9 and were refreshed every four days until day 30 (Song et al., 2002).

In the next series the target is GSK-3β (Homo sapiens, UniProt P49841). The settings on record: cited from earlier work.
Sequence of GSK-3β (P49841 whole entry, species assumed): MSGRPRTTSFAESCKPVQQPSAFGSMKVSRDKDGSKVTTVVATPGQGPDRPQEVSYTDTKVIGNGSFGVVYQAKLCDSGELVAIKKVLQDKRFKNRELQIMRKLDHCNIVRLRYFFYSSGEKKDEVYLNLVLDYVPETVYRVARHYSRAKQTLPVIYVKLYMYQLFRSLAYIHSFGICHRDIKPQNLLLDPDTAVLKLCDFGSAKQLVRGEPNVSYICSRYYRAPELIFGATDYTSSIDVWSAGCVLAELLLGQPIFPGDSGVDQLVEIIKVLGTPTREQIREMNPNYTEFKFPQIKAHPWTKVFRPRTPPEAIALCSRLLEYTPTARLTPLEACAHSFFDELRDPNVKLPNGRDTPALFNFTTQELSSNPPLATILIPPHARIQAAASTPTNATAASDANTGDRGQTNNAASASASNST
For series [1], the system named is mouse embryonic stem cells. Particulars: At 400 Nm; cited from earlier work.
The test system of series [2] is Aβ40 and Aβ42 in SH-SY5Y neuroblastoma cells. Particulars: cited from earlier work.
For series [3] the following is noted: cited from earlier work.
Series [4] has as its system BACE1, BACE2, α-secretase, the proteasome or GSK3β. The settings on record: cited from earlier work.
Series [5] relates to Notch cleavage and Notch-mediated intracellular signaling. The settings on record: cited from earlier work.
Series [6] concerns Aβ42 in human neuroblastoma cells. The settings on record: cited from earlier work.
For series [7], the system named is Aβ40 in human neuroblastoma cells. The settings on record: cited from earlier work.
The target of the next series is gamma secretase. Particulars: read-out: IC50 γ-secretase; cited from earlier work.
Another series concerns Notch. The settings on record: cited from earlier work.
The test system of series [8] is human cortical astrocytes (HA1800, ScienCell). Format: cell-based. Particulars: VPA in reprogramming medium longer than 2 days.
Series [9] deals with human astrocyte-converted neurons. Description: Patch clamp whole-cell recordings of human astrocyte-converted neurons. A general note: In patch-clamp work, channel activity is measured electrically.

Sequence of TGFβR-I (P36897 34-503): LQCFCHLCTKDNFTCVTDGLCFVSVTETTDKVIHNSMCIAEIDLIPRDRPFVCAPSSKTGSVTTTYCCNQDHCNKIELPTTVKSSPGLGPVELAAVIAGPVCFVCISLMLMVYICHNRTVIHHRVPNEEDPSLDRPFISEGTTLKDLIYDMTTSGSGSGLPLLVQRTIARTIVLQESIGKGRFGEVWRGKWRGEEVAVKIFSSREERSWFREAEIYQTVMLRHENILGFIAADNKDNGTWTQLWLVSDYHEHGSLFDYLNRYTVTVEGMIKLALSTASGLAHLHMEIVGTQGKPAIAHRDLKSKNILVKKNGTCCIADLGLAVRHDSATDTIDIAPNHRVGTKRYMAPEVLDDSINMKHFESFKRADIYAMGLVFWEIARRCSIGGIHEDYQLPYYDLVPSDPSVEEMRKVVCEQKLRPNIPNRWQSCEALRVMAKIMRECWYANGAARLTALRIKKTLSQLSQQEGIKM

LY364947: at TGFβR-I, the “selectivity over TGFβR-II” value is listed as “shows 7-fold selectivity over TGFβR-II”.

Take `C[C@H](NC(=O)Cc1cc(F)cc(F)c1)C(=O)N[C@H](C(=O)OC(C)(C)C)c1ccccc1` [DAPT]: the “effect of individual removal from the 9 small molecule pool on number of converted neurons / reprogramming efficiency” value in the series with human astrocytes is given as “significantly reduced; also recorded: most significant reduction”.

As to `C/C(=C\c1ccc(C(=O)O)cc1)c1ccc2c(c1)C(C)(C)CCC2(C)C` [TTNPB], the “effect of individual removal from the 9 small molecule pool on number of converted neurons / reprogramming efficiency” value in the series on human astrocytes was “did not affect; also recorded: did not have a significant effect”.

Turning to `NC(=O)c1ccc(-c2nc(-c3ccc4c(c3)OCO4)c(-c3ccccn3)[nH]2)cc1` [SB431542, -[4-(1,3-benzodioxol-5-yl)-5-(2-pyridinyl)-1H-imidazol-2-yl]benzamide], the “effect of individual removal from the 9 small molecule pool on number of converted neurons / reprogramming efficiency” value in the series on human astrocytes is recorded as “significantly reduced”.

Turning to `CNC1CCC(N(Cc2cccc(-c3ccncc3)c2)C(=O)c2sc3ccccc3c2Cl)CC1` (stereo not shown) [SAG], in the series on human astrocytes, the “effect of removal from the 9 small molecule pool on number of converted neurons / reprogramming efficiency” value is given as “slightly reduced”.

Regarding `Nc1cccc(-c2cc3c(Oc4cccc(O)c4)ncnc3[nH]2)c1` [TWS119], the IC50 on GSK-3β is 30 nM. Further, the “neurogenesis in mouse embryonic stem cells” value in series [1] is “TWS119 induces neurogenesis in mouse embryonic”.

`c1ccc2c(Oc3nc(Nc4ccc(N5CCOCC5)cc4)c4ncn(C5CCCCC5)c4n3)cccc2c1` [Purmo, purmorphamine]: the “effect of removal from the 9 small molecule pool on number of converted neurons / reprogramming efficiency” value in the series on human astrocytes is reported as “slightly reduced”.

Regarding `O=S(=O)(NC1CCC(c2cc(F)ccc2F)(S(=O)(=O)c2ccc(Cl)cc2)CC1)C(F)(F)F` (stereo not shown) [MRK 560], in [2], the IC50 was 0.65 nM. For the same molecule, the “oral bioavailability” value in series [3] is “Orally bioavailable”.

As for `COc1oc(=O)c2cc(N)ccc2c1Cl` [LK 6], the “activity on BACE1, BACE2, α-secretase, the proteasome or GSK3β” value in [4] is listed as “signaling. Displays no activity on BACE1, BACE2,”. Besides, the “effect on Notch cleavage and Notch-mediated intracellular signaling” value in [5] is recorded as “no effect”.

As for `CC(C)C[C@H](NC(=O)[C@H](Cc1ccccc1)C[C@@H](O)[C@H](Cc1ccccc1)NC(=O)OC(C)(C)C)C(=O)N[C@@H](Cc1ccccc1)C(N)=O` [L-685, 458], the IC50 in series [6] was 67 nM; in series [7] it was 48 nM; on gamma secretase, 17 nM.

On to `C[C@H](NC(=O)CCC(F)(F)F)C(=O)N[C@@H]1C(=O)N(CCO)c2ncccc2-c2ccccc21` [LY3039478], for which the IC50 with Notch is 0.41 nM.

Turning to `O=C(NCc1ccccc1)c1csc(Nc2ccncn2)n1` [Tzv, thiazovivin], the “effect of individual removal from the 9 small molecule pool on number of converted neurons / reprogramming efficiency” value in the series with human astrocytes is “did not affect; also recorded: did not have a significant effect”.

With `CCCC(CCC)C(=O)O` [VPA, valproic acid], the cell death result in series [8] is reported as “increased cell death”. For the same molecule, in the series on human astrocytes, the “effect of individual removal from the 9 small molecule pool on number of converted neurons / reprogramming efficiency” value is given as “slightly reduced”.

In the case of `N#Cc1ccc2[nH]c(O)c(-c3ccc(CN4CCOCC4)cn3)c2c1` [AZD1080], the “oral activity and brain permeability” value in series [3] is given as “selective, orally active, brain permeable GSK3 inhibitor”.

On to DNQX, for which the “effect on the majority of synaptic events at −70 mV” value in series [9] is “blocked”.

Regarding `CC(C)(C(=O)NCC(F)(F)C(F)(F)F)C(=O)N[C@@H]1C(=O)Nc2ccccc2-c2ccccc21` [RO4929097], the IC50 at gamma secretase was 4 nM.
